# Laboratory results: US9657073B2, “Inhibitors of Bcl-2” (Case Western Reserve University, priority 2010, dated 2017)
# Experiments:
# primary CLL cells [1] = assay: Apoptosis and cell death assays (trypan blue, propidium iodide, Hoechst nuclear morphology, Annexin V); format: cell-based, human; conditions: 24 hr
# From the text: Lymphocytes were freshly separated from heparinized peripheral blood obtained from normal adult volunteers or adult patients with chronic lymphocytic leukemia (CLL) meeting standard diagnostic guidelines. […] We conformed to all guidelines and regulations in accordance with Internal Review Board protocols ICC2902/11-02-28 (Case Western Reserve University Cancer Center/University Hospitals of Cleveland Ireland Cancer Center). Cells were separated by centrifugation through Ficoll-Hypaque and suspended in RPMI medium supplemented with 10% fetal bovine serum, L-glutamine (2 mM), and nonessential amino acids (100 μM) at a density of 2 million cells/ml. Normal CD19+ B cells were pooled from healthy individuals between 26 and 32 years of age, in accordance with IRB-approval (as above). Mononuclear cells were separated by Ficoll-Hypaque centrifugation, and further isolation of B and T cells was achieved by magnetic separation using CD19 microbeads (Miltenyi Biotec, Bergisch Gladbach, Germany).
# Apoptosis was quantified according to apoptotic nuclear morphology and by detection of phosphatidylserine exposure on the plasma membrane. […] Images were obtained using a chargecoupled device camera (Hamamatsu Photonics, Shizuoka, Japan) and digitally converted by Simple PCI software (Hamamatsu Photonics). Membrane translocation of phosphatidylserine was detected by Annexin V staining. Annexin V-positive cells were assessed by flow cytometry using an ARIA flow cytometer (Beckman Coulter, Pasadena, Calif., USA). All flow cytometry data were analyzed using FlowJo 8.8.4 for Macintosh (Treestar, Ashland, Oreg., USA). Dead cells were identified according to their inability to exclude trypan blue dye or propidium iodide. Trypan blue dye uptake into cells was detected by light microscopy using a 40× objective and quantified by counting up to 400 cells. Propidium iodide uptake was quantified by flow cytometry in association with the Annexin V measurement described above.
# multiple myeloma cells = assay: Killing of multiple myeloma cells; format: cell-based; conditions: FIG. 17
# primary CLL cells [2] = assay: Single cell digital imaging of intracellular Ca2+ (Fura-2); format: cell-based, human; conditions: 10 μM peptide
# From the text: Lymphocytes were freshly separated from heparinized peripheral blood obtained from normal adult volunteers or adult patients with chronic lymphocytic leukemia (CLL) meeting standard diagnostic guidelines. Patients had either never received treatment or had received treatment over two years prior to obtaining samples. We conformed to all guidelines and regulations in accordance with Internal Review Board protocols ICC2902/11-02-28 (Case Western Reserve University Cancer Center/University Hospitals of Cleveland Ireland Cancer Center). Cells were separated by centrifugation through Ficoll-Hypaque and suspended in RPMI medium supplemented with 10% fetal bovine serum, L-glutamine (2 mM), and nonessential amino acids (100 μM) at a density of 2 million cells/ml. Normal CD19+ B cells were pooled from healthy individuals between 26 and 32 years of age, in accordance with IRB-approval (as above). Mononuclear cells were separated by Ficoll-Hypaque centrifugation, and further isolation of B and T cells was achieved by magnetic separation using CD19 microbeads (Miltenyi Biotec, Bergisch Gladbach, Germany).
# (§1) Methods of Ca^2+ imaging, described in detail previously, were employed here with only minor modification. Briefly, cells adhered to poly-L-lysine-coated coverslips (35-mm coverslip dishes, MatTek Corp., Ashland, Mass.) were loaded with 1 μM Fura-2 AM for 45 min at 25° C. in extracellular buffer (ECB) (130 mM NaCl, 5 mM KCl, 1.5 mM CaCl2, 1 mM MgCl2, 25 mM Hepes, pH 7.5, 1 mg/ml BSA, and 5 mM glucose). The buffer was replaced with fresh ECB and the incubation continued for […] at 25° C. to permit de-esterification. Culture dishes were mounted on the non-heated stage of an inverted microscope (Olympus CKX41) equipped with a 20× Fluor objective. Excitation light was alternated between 340 and 380 nm by a filter wheel (Sutter Instrument Co.), with 0.8 sec and 0.2 sec exposure times respectively, and emitted light was filtered at >510 nm and collected with an intensified charge-coupled device camera (Cooke 12 bit VGA). The video signal was digitized using InCyt Im2 software (Intracellular Imaging) and subsequently processed using Microsoft Excel. To determine Rmin cells were perfused with ECB deficient in Ca^2+ and supplemented with 4 mM EGTA and 10 μM ionomycin. Rmax was obtained by perfusing cells with ECB supplemented with 4 mM CaCl2 and 10 μM ionomycin. […] In most experiments peptides were fused with the cell penetrating peptide of HIV TAT to facilitate uptake by cells. In some experiments peptides, without linkage to TAT, were delivered into cells using Chariot reagent (Active Motif) as previously described. Xestospongin C (Enzo Life Sciences International) and U73122 (Sigma), both dissolved in DMSO, were added to cells 30 mM prior to Ca^2+ measurements.
# [3] = system: triple IP3R knockout DT40 cells; assay: as above; format: cell-based; conditions: 5 μM peptide, TKO DT40, FIG. 8C
# Procedure: as §1, with “In some experiments peptides, without linkage to TAT, were delivered into cells using Chariot reagent (Active Motif) as previously described. Xestospongin C (Enzo Life Sciences International) and U73122 (Sigma), both dissolved in DMSO, were added to cells 30 mM prior to Ca^2+ measurements.” left out
# wild type DT40 cells = assay: as above; format: cell-based; conditions: 5 μM peptide, DT40 expressing all three IP3R isoforms, FIG. 8B
# Procedure: as §1, with “In some experiments peptides, without linkage to TAT, were delivered into cells using Chariot reagent (Active Motif) as previously described. Xestospongin C (Enzo Life Sciences International) and U73122 (Sigma), both dissolved in DMSO, were added to cells 30 mM prior to Ca^2+ measurements.” left out
# RS11846 cells = assay: as above; format: cell-based, human; conditions: RS11846, FIG. 6
# Procedure: (§2) WEHI7.2 cells were cultured in DMEM supplemented with 10% fetal calf serum, L-glutamine (2 mM), and nonessential amino acids (100 μM). Transfections of WEHI7.2 cells with expression vectors encoding wild type Bcl-2 and Bcl-2RS/GG were described previously. Jurkat cells and RS11846 cells were cultured in RPMI medium supplemented with 10% fetal bovine serum, L-glutamine (2 mM), and nonessential amino acids (100 μM). Cells were maintained in 5% carbon dioxide at high humidity.
# as §1
# Jurkat cells = assay: as above; format: cell-based, human; conditions: 10 μM peptide, Jurkat, FIG. 5
# Procedure: as §2, §1
substance,measurement,setting,value
TAT-IDPDD/AA: TAT-IDP analogue; DD/AA substitution eliminates the predicted aspartyl protease cleavage site (RKKRRQRRRGGNVYTEIKCNSLLPLAAIVRV),apoptosis induction in CLL cells,"primary CLL cells [1]; 10 μM peptide, Figs. 12-15",substantial apoptosis
same,sensitivity of CLL cells to apoptosis induction relative to normal peripheral blood lymphocytes,"primary CLL cells [1]; propidium iodide exclusion by flow cytometry, FIG. 16",over 6 fold
same,killing of multiple myeloma cells,multiple myeloma cells,kills multiple myeloma cells
same,CLL cells with one or two high amplitude spikes associated with prolonged basal Ca2+ elevation,primary CLL cells [2]; 90 min,28±5%
same,CLL cells with prolonged Ca2+ oscillations without baseline Ca2+ elevation,primary CLL cells [2]; 90 min,6±2%
same,CLL cells with relatively brief burst of Ca2+ oscillations associated with prolonged basal Ca2+ elevation,primary CLL cells [2]; 90 min,17±4%
same,amplitude of Ca2+ peaks compared to TAT-IDP,primary CLL cells [2]; FIG. 10,significantly higher
same,CLL cells with Ca2+ elevation,"primary CLL cells [2]; recordings typically 90 min, FIG. 9",51 ±5%
same,induction of Ca2+ oscillations compared with wild type DT40,[3],significantly less
same,induction of Ca2+ oscillations,wild type DT40 cells,induced Ca^2+ oscillations
same,activity (Ca2+ oscillations) compared to TAT-IDP,RS11846 cells,increased activity
same,amplitude and frequency of Ca2+ oscillations compared with TAT-IDP,Jurkat cells,much higher
